Assay [1] addresses T1, human GPR119 receptor (Homo sapiens, UniProt Q8TDV5).
T1 sequence (Q8TDV5 1-335): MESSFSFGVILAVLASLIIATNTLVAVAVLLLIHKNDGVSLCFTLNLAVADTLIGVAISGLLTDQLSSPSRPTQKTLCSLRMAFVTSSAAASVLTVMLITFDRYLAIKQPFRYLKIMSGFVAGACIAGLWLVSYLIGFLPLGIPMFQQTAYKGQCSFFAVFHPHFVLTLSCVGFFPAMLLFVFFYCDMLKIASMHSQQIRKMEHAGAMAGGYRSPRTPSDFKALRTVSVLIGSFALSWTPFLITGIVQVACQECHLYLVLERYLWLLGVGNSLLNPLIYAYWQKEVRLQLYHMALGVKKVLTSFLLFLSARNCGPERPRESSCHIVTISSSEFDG
Kind of assay: Ligand-induced GPR119 activation, cAMP accumulation (3H-adenine) in transiently transfected COS-7 cells. It counts as cell-based. The arrangement: expressed in transfected cells; host or cells: COS-7. As for the experimental part: Three different ligands were tested: (C) oleoylethanolamide (OEA), (A) 2-oleoylglycerol (2OG), and (D) oleic acid, by measurement of cAMP accumulation. Briefly, COS-7 cells were transiently transfected with the human GPR119 receptor (squares) or empty vector (negative control, triangle). The cells were seeded in plates one day after transfection, incubated for 24 hours with 2 μCi/ml of ^3H-adenine. At the day of the cAMP measurement, the cells incubated with the ligands for 25 minutes, lysed, and the cAMP purified using Dowex and alumina columns. The data represent sum-curves of three independent experiments (n=3), performed in duplicates. All dose-response curves were normalized to the efficacy of OEA in each experiment, and the data are shown as ligand-induced activation above basal receptor activity.
Briefly, COS-7 cells were transiently transfected with human GPR119 receptor (squares) or empty vector (negative control, triangle). The cells were seeded in plates one day after transfection, incubated for 24 hours with 2 μCi/ml of ^3H-adenine. At the day of the cAMP measurement, the cells were incubated with the ligand for 25 minutes, lysed, and the cAMP purified using Dowex and alumina columns. The data represent sum-curves of the 7 independent experiments, performed in duplicates.
GPR119 receptor signalling experiments were carried out using COS-7 cells transiently transfected with the human GPR119 receptor. The COS-7 cells were grown at 10% CO2 and 37° C. in Dulbecco's modified Eagle's medium with glutamax (Gibco, Cat. No 21885-025) adjusted with 10% fetal bovine serum (FBS), 180 u/ml penicillin and 45 ug/mL streptomycin (PenStrep). Transfection of the COS-7 cells was performed by the calcium phosphate precipitation method. The cells were seeded in 24 well plates (1.5×10^5 cells/well) one day after transfection, and were subsequently incubated for 24 hours with 2 μCi/ml of 3H-adenine in 0.5 ml growth medium per well. At the day of the cAMP measurement, the cells were washed twice in HBS buffer (25 mM Hepes, pH 7.2, supplemented with 0.75 mM NaH2PO4, 140 mM NaCl and 0.05% (w/v) bovine serum albumin), and 0.5 ml HBS buffer supplemented with 1 mM of the phosphodiesterase inhibitor IBMX (3-isobutyl-1-methylxanthine, Sigma chemicals Co., St. Louis, Mo., USA) was added together with increasing concentrations of the different compounds (2OG, 1OG, OEA, oleic acid or 2-PG). After 25 min incubation at 37° C., the cells were placed on ice, the medium was removed, and the cells were lysed in 1 ml of 5% (w/v) trichloroacetic acid, supplemented with 0.1 mM cAMP and 0.1 mM ATP for 30 min. The lysate mixtures were loaded onto Dowex columns (Bio-Rad, Hercules, Calif., USA), which were washed with 2 ml of water and placed onto the top of alumina columns (Sigma) and washed again with 10 ml of water. The alumina columns were eluted with 6 ml of 0.1 M imidazole into 15 ml scintillation fluid (Highsafe III). Columns were re-used up to 15 times. Dowex columns were regenerated by adding 10 ml of 2 N HCl followed by 10 ml of water; the alumina columns were regenerated by adding 2 ml of 1 M imidazole, 10 ml of 0.1 M imidazole, and finally 5 ml of water. Determinations were made in duplicate.

The target in assay [2] is T1, human GPR119 receptor. Nature of the assay: Ligand-induced GPR119 activation, cAMP formation (HTRF) in CHO-K1 cells. The settings on record: for cAMP formation / GPR119 activation in words: CHO-K1 cells transiently expressing GPR119, FIG. 1; for EC50: CHO-K1 cells, cAMP formation. The arrangement: expressed in transfected cells. It counts as cell-based. As for the experimental part: FIG. 1. Ligand-induced GPR119 activation in CHO-K1 cells. Five different ligands were tested. Oleoylethanolamide, H-1: 2-oleoylglycerol, H-2: 1-oleoyleglycerol, H-4: oleic acid, and H-5: 2-palmitoylglycerol. cAMP was measured by a HTRF kit from CisBio International. Three experiments (each in duplicate) were performed using oleoylethanolamide as positive control in each experiment. All dose-response curves were normalized to the efficacy of OEA in each experiment, and the data are shown as ligand-induced activation above basal receptor activity.
GPR119 receptor signalling experiments were carried out using CHO-K1 cells transiently transfected with the human GPR119 receptor. CHO-K1 cells expressing GPR119 grown to mid-log phase prior to the test in culture media without antibiotics and supplemented with doxycycine (final concentration 200 ng/ml) were detached be gentle flushing with PBS-EDTA (5 mM EDTA), recovered by centrifugation and resuspended in Ham's F12 culture medium containing 10% FCS and no antibiotic. Cells were counted, centrifuged in a 50 ml Falcon tube and resuspended in KRH-IBMX (5 mM KCL, 1.25 mM MgSO4, 124 mM NaCl, 25 mM HEPES, 13.3 mM glucose, 1.25 mM KH2PO4, 1.45 mM CaCl2, 0.6 mg/ml BSA and […] Phenol red, pH 7.4) at a concentration of 6.25×10^5 cells/ml. Cells were then filled in 96 well plates (total vol 24 μl/well) and stimulated with agonists in serial dilution for 30 min. cAMP was then measured using a HTRF kit from CisBio International (cat no. 62AM2PEB). Determinations were made in duplicate.

Assay [3] relates to tGLP-1 release. Nature of the assay: Clinical experiment: duodenal bolus in healthy male volunteers, plasma tGLP-1 release. It counts as in vivo, human. The settings on record: for plasma tGLP-1 levels during the first 25 minutes: duodenal bolus, compared to vehicle. As for the experimental part:
FIG. 4. Stimulation of tGLP-1 release by 2OG in the intestinal lumen. Eight healthy male volunteers were given enteral feeding by duodenal tube. Each volunteer was given three different liquid meals (two grams of 2OG(▴), 1.54 grams of oleic (∘) acid or vehicle (⋄)) on three different days. The vehicle consisted of 50 ml glycerol plus 5 ml ethanol. Data are mean values±SEM and were analysed by repeated measurements ANOVA.
8 healthy male volunteers (20-30 years, BMI 20-25) that had fasted 10 hours, were given enteral feeding by duodenal tube. The liquid meals were prepared 5 min before use. Each volunteer was given three different liquid meals (clear solution, bolus 55 ml) on three different days (A-C).
Day A: 2OG (2 g) in 50 ml glycerol+5 ml ethanol Day B: oleic acid (1.54 g) in 50 ml glycerol+5 ml ethanol Day C: 50 ml glycerol+5 ml ethanol Blood Samples were collected at the following points (min): −15, −10, 0, 10, 20, 30, 40, 50, 60, 75, 90, 120, 150, 180, 240.
In serum was measured: insulin and C-peptide
In plasma was measured: glucose, tGLP-1, Cholecystokinin (CCK).
The methods for these assays have been described previously (ref 18).

[4] abbreviates: transiently transfected COS-7 cells, Table 2, read-out: EC50 for activation of GPR119.
The mark [5] stands for this setting: COS-7 cells, cAMP formation, n = 3, read-out: EC-values for activation of GPR119, COS-cells (n = 3).
Where [6] appears, read: experiment 1, read-out: EC-values for activation of GPR119, CHO-exp-1.
Where [7] appears, read: experiment 2, read-out: EC-values for activation of GPR119, CHO-exp-2.
Setting [8] is: experiment 3, read-out: EC-values for activation of GPR119, CHO-exp-3.

Experimental findings from US20120128770A1, “TREATMENT OF INSULIN RESISTANCE AND OBESITY BY STIMULATING GLP-1 RELEASE” (Kobenhavns Universitet, priority 2009, published 2012) are described below.

With `CCCCCCCCCCCCCCCC(=O)OC(CO)CO` [2-palmitolyglycerol (2PG), 2-palmitoylglycerol], the EC50 in assay [1] (setting [4]) is above 30 µM. Also, the “cAMP formation / GPR119 activation in words” value in assay [2] was “activator of GPR119”.

Regarding `CCCCCCCC/C=C\CCCCCCCC(=O)NCCO` [Oleoylethanolamide, oleoylethanolamide, reference compound], the EC50 was 1.4 µM in assay [1] (setting [5]), 1.43 µM in assay [2] (setting [6]), 4.65 µM in assay [2] (setting [7]) and 1.67 µM in assay [2] (setting [8]).

For the compound `CCCCCCCC/C=C\CCCCCCCC(=O)O` [oleic acid, reference compound], the “plasma tGLP-1 levels during the first 25 minutes” value in assay [3] (fasted volunteers) is “did not increase plasma levels of GLP-1”. Moreover, the EC50 was 32.6 µM in assay [1] (setting [5]), above 30 µM in assay [1] (setting [4]) and above 30 µM in assay [2] (setting [8]).

Regarding `CCCCCCCC/C=C\CCCCCCCC(=O)OC(CO)CO` [2-Oleoylglycerol, 2-oleoylglycerol], in assay [3] (comparison between groups, data not shown), the plasma cholecystokinin levels entry is listed as “no difference”. For the same compound, in assay [3] (fasted volunteers), the “plasma tGLP-1 levels during the first 25 minutes” value was “significant increased levels of tGLP-1”. Further, the “incremental area under the curve (iAUC) of tGLP-1 for the first 25 min” value in assay [3] (healthy male volunteers, duodenal tube, 2 g 2OG or 1.54 g oleic acid in 50 ml glycerol + 5 ml ethanol, mean±SEM) was determined as 0.07±0.02 nM×25 min. In addition, the “plasma levels of glucose” value in assay [3] (increase after 25 min in all three groups, comparison between groups, data not shown) is “no difference between groups”. For the same compound, the “insulin or c-peptide levels” value in assay [3] (serum, fasted volunteers, data not shown) is “no effect”. Besides, the EC50 in assay [1] (setting [5]) is 2.8 µM; in assay [1] (setting [4]), 4.2 µM; in assay [2] (setting [6]), 1.55 µM; in assay [2] (setting [7]), 1.12 µM. Also, the “GPR119 agonism (efficacy normalized to OEA)” value in assay [1] (cAMP formation, COS-7 cells (also CHO-K1)) is given as “full agonist”. Further, in assay [2], the “cAMP formation / GPR119 activation in words” value is given as “increase cAMP formation”.

On to `CCCCCCCC/C=C\CCCCCCCCOC(CO)CO` [2OG-ether], for which the EC50 in assay [1] (setting [4]) worked out at 7.9 µM.
